Test [1] has as its target T1, Serine/threonine-protein kinase A-Raf (Homo sapiens, UniProt P10398).
T1 sequence (P10398 whole entry): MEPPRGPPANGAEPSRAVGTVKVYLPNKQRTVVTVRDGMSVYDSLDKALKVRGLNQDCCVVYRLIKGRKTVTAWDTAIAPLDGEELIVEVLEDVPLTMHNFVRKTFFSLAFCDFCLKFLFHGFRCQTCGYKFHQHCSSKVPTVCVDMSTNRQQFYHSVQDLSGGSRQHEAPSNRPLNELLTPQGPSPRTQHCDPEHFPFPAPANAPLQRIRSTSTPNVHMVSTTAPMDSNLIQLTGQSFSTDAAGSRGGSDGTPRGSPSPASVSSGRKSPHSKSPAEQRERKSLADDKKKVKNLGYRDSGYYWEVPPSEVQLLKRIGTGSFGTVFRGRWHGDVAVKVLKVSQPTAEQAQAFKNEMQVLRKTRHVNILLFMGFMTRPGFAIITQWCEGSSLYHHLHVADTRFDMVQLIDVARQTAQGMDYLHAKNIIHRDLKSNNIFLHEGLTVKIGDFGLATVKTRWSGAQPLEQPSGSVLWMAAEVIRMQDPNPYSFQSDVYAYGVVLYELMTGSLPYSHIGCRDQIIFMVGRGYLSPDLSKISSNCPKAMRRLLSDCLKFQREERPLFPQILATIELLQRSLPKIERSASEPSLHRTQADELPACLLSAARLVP

Test [2] deals with Eukaryotic translation initiation factor 2-alpha kinase 1 (Homo sapiens, UniProt Q9BQI3).
Chain of Eukaryotic translation initiation factor 2-alpha kinase 1 (Q9BQI3 whole entry): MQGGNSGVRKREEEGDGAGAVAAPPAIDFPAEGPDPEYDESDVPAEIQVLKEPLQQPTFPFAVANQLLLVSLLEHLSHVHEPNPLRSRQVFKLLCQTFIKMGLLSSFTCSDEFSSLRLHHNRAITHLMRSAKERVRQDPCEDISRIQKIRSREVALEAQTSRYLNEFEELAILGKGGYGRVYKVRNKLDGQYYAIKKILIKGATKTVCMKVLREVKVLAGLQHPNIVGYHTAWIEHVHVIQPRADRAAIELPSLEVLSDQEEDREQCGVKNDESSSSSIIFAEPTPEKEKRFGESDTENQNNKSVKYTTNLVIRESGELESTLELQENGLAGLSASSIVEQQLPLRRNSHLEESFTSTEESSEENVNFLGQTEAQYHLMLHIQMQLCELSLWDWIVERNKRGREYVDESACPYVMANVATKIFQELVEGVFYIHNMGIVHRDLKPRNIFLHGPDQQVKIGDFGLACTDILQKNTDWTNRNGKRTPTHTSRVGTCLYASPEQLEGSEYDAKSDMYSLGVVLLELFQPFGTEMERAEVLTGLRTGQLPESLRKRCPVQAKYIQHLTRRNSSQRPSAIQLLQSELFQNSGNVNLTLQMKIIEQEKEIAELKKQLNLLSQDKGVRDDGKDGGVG
For test [3], the target named is Phosphatidylethanolamine-binding protein 1 (Homo sapiens, UniProt P30086).
Chain of Phosphatidylethanolamine-binding protein 1 (P30086 whole entry): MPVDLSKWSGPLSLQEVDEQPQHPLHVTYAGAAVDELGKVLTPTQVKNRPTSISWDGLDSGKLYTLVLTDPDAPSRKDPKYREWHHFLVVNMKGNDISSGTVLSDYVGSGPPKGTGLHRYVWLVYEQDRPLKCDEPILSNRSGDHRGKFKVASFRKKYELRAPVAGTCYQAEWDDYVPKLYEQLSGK
Test [4] deals with Protein kinase C delta type (Homo sapiens, UniProt Q05655).
Chain of Protein kinase C delta type (Q05655 whole entry): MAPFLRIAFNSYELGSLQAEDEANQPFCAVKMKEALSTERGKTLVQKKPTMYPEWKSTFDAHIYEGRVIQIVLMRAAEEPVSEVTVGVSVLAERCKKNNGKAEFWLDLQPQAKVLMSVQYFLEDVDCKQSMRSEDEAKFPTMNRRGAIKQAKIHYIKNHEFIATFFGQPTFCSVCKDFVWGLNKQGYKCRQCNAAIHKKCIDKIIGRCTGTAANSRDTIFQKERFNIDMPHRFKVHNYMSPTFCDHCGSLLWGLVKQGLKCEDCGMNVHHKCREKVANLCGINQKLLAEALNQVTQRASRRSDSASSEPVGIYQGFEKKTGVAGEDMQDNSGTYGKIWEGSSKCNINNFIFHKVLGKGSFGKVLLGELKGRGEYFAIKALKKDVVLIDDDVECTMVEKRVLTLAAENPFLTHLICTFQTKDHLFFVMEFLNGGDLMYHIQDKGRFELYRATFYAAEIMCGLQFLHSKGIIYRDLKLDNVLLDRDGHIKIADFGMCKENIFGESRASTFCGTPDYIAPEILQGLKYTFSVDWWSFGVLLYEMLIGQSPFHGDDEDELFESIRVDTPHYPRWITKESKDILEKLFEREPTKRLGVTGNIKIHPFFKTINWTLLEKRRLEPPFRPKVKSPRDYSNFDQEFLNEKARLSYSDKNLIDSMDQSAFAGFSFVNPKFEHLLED
Test [5] concerns the target T2, Glycogen phosphorylase, brain form (Homo sapiens, UniProt P11216).
T2 sequence (P11216 whole entry): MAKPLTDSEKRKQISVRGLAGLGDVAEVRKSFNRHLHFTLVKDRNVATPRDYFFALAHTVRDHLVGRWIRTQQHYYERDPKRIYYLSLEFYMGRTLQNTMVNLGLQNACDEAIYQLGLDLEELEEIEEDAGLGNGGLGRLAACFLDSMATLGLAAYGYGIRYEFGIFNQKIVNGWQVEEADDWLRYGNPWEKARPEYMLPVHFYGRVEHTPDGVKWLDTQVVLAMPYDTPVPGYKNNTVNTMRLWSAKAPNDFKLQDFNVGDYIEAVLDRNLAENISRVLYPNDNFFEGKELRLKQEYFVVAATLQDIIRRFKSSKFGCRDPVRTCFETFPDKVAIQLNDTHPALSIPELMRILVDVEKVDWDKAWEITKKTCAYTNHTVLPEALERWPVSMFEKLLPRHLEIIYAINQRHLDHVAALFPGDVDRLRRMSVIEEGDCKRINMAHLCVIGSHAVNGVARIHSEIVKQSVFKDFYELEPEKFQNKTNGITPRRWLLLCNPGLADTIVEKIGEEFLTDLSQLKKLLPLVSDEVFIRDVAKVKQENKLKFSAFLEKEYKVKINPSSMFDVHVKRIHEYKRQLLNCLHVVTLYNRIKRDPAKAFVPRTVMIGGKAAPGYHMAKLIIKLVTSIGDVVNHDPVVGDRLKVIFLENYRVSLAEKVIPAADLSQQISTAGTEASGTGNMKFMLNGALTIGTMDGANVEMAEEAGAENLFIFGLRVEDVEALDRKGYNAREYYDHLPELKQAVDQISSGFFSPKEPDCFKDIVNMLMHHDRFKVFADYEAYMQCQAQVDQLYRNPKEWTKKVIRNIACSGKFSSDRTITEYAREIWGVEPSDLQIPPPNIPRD

In test [6] the target is T3, Septin-9 (Homo sapiens, UniProt Q9UHD8).
T3 sequence (Q9UHD8 whole entry): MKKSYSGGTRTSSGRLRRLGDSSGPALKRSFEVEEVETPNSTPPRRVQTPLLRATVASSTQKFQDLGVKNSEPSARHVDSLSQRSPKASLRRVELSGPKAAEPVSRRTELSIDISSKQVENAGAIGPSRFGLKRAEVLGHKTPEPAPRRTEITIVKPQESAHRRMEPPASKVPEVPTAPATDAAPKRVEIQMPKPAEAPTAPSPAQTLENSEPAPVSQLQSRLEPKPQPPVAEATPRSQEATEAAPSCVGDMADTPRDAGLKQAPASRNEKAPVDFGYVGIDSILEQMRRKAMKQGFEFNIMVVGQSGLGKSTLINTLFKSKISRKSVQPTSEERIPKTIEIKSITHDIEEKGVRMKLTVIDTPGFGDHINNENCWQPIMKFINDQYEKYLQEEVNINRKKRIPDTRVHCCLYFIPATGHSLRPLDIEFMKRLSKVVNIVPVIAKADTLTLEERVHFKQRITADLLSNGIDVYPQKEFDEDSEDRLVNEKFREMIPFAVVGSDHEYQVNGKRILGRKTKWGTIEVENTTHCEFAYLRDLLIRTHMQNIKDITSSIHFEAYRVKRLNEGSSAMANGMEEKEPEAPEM

The target of test [7] is TRAF2 and NCK-interacting protein kinase (Homo sapiens, UniProt Q9UKE5).
Chain of TRAF2 and NCK-interacting protein kinase (Q9UKE5 whole entry): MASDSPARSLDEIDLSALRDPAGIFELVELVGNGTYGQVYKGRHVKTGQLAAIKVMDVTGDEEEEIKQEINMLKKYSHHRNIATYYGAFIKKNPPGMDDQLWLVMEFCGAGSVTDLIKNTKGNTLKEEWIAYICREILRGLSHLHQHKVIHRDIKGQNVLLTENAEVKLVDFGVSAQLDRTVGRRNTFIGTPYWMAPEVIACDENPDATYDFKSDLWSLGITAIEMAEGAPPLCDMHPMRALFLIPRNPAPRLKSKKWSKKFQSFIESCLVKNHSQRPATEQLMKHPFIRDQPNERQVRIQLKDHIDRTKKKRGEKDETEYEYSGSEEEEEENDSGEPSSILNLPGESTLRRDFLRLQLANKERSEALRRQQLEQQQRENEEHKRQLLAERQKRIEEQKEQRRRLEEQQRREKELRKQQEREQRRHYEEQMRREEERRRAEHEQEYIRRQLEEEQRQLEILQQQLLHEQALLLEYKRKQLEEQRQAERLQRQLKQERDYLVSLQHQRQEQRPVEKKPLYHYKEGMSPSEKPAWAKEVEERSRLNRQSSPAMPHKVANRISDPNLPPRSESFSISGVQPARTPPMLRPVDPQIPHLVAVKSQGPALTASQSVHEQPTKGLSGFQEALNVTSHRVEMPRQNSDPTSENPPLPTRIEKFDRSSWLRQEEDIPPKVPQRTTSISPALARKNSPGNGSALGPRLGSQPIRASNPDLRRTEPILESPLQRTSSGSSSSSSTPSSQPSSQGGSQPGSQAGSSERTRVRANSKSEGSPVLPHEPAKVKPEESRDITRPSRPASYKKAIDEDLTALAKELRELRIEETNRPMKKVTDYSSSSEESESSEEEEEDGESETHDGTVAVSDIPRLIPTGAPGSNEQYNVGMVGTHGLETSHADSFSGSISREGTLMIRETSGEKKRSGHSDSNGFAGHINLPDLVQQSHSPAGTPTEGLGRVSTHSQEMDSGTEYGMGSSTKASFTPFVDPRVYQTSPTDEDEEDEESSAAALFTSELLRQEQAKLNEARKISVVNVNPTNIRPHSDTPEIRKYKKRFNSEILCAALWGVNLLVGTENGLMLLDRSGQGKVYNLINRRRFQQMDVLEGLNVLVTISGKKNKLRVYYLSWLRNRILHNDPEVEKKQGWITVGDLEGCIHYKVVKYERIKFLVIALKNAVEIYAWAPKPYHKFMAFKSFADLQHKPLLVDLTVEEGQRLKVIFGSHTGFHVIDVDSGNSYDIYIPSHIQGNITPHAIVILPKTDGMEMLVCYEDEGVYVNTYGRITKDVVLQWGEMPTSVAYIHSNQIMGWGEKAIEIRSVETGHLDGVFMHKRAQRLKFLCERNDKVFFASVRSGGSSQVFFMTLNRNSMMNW

Activity calls are given as the source filed them.
Further: in the data inactive means no Kd found up to 30 µM.

By Kd is commonly meant the equilibrium constant for the complex coming apart. As for `Cc1cnc(NC(=O)Nc2cc(Br)c(C)cc2OC[C@@H]2CNCCO2)cn1` [RABUSERTIB], the Kd in test [1], in test [2], in test [3], in test [4], in test [5] and in test [6] was > 30 µM (inactive) each time. In addition, the Kd in test [7] is > 30 µM (inactive).
On to `CO[C@H]1C[C@@H]2CC[C@@H](C)[C@@](O)(O2)C(=O)C(=O)N2CCCC[C@H]2C(=O)O[C@H]([C@H](C)C[C@@H]2CC[C@@H](OP(C)(C)=O)[C@H](OC)C2)CC(=O)[C@H](C)/C=C(\C)[C@@H](O)[C@@H](OC)C(=O)[C@H](C)C[C@H](C)/C=C/C=C/C=C/1C` [RIDAFOROLIMUS], for which the Kd in test [1], in test [2], in test [3], in test [4], in test [5] and in test [6] was > 30 µM (inactive) throughout. In addition, the Kd in test [7] was > 30 µM (inactive).
Take `N#CC1(c2ccc(NC(=O)c3cccnc3NCc3ccncc3)cc2)CCCC1` [RIVOCERANIB]: the Kd in test [1], in test [2], in test [3], in test [4], in test [5] and in test [6] was > 30 µM (inactive) each time. Moreover, in test [7], the Kd is > 30 µM (inactive).
`O=c1[nH]ccc2cc(OC3CCNCC3)ccc12` [SAR-407899 FREE BASE]: the Kd in test [1] was > 30 µM (inactive); in test [2], > 30 µM (inactive); in test [3] it was > 30 µM (inactive); in test [4], 0.021 µM (active); in test [5], > 30 µM (inactive); in test [6] it was > 30 µM (inactive). In addition, the Kd in test [7] is > 30 µM (inactive).
On to `Cn1cc(-c2cnn3c(N)c(Br)c([C@@H]4CCCNC4)nc23)cn1` [SCH-900776], for which the Kd in test [1] was > 30 µM (inactive); in test [2], > 30 µM (inactive); in test [3] it was > 30 µM (inactive); in test [4], 1.64 µM (active); in test [5] it was > 30 µM (inactive); in test [6] it was > 30 µM (inactive). Also, in test [7], the Kd was > 30 µM (inactive).
Take `CO[C@H]1C[C@@H]2CC[C@@H](C)[C@@](O)(O2)C(=O)C(=O)N2CCCC[C@H]2C(=O)O[C@H]([C@H](C)C[C@@H]2CC[C@@H](O)[C@H](OC)C2)CC(=O)[C@H](C)/C=C(\C)[C@@H](O)[C@@H](OC)C(=O)[C@H](C)C[C@H](C)/C=C/C=C/C=C/1C` [SIROLIMUS]: the Kd in test [1], in test [2], in test [3], in test [4], in test [5] and in test [6] was > 30 µM (inactive) throughout. Further, the Kd in test [7] is > 30 µM (inactive).
Turning to `CCS(=O)(=O)c1cccc(-c2cc(C(=O)NC3CCN(C)CC3)c(C)c3[nH]c4ncc(C)cc4c23)c1` [TAK-901], the Kd in test [1], in test [2], in test [3], in test [4], in test [5] and in test [6] was > 30 µM (inactive) throughout. In addition, the Kd in test [7] was > 30 µM (inactive).
Take `COc1cc2c(Nc3ccc(Cl)c(Cl)c3F)ncnc2cc1OC[C@@H]1C[C@@H]2CN(C)C[C@@H]2C1` [TESEVATINIB]: the Kd in test [1], in test [2], in test [3], in test [4], in test [5] and in test [6] was > 30 µM (inactive) in each case. The Kd in test [7] is > 30 µM (inactive).
On to `O=C(Cc1ccc(-c2ccc(OCCN3CCOCC3)cc2)cn1)NCc1ccccc1` [TIRBANIBULIN], for which the Kd in test [1], in test [2], in test [3], in test [4], in test [5] and in test [6] was > 30 µM (inactive) each time. Further, the Kd in test [7] was > 30 µM (inactive).
As for `O=C1NC(=O)[C@@H](c2cn3c4c(cccc24)CCC3)[C@@H]1c1c[nH]c2ccccc12` [TIVANTINIB], the Kd in test [1], in test [2], in test [3], in test [4], in test [5] and in test [6] was > 30 µM (inactive) in each case. Moreover, the Kd in test [7] was > 30 µM (inactive).
For the molecule `C[C@@H](NC(=O)c1ncnc(N)c1Cl)c1ncc(C(=O)Nc2cc(C(F)(F)F)c(Cl)cn2)s1` [TOVORAFENIB], the Kd in test [1], in test [2], in test [3], in test [4], in test [5] and in test [6] was > 30 µM (inactive) throughout. In addition, the Kd in test [7] was > 30 µM (inactive).
Consider `Cc1cc(Nc2ncnc3ccc(NC4=NC(C)(C)CO4)cc23)ccc1Oc1ccn2ncnc2c1` [TUCATINIB], for which the Kd in test [1], in test [2], in test [3], in test [4], in test [5] and in test [6] was > 30 µM (inactive) each time. Further, in test [7], the Kd is > 30 µM (inactive).
As to `Cn1ncc(Cl)c1-c1cc(C(=O)N[C@H](CN)Cc2ccc(F)c(F)c2)oc1Cl` [UPROSERTIB], the Kd in test [1], in test [2], in test [3], in test [4], in test [5] and in test [6] was > 30 µM (inactive) in each case. The Kd in test [7] is > 30 µM (inactive).
Consider `C[C@@H](N)c1ccc(C(=O)Nc2ccnc3[nH]ccc23)cc1` [Y-39983], for which the Kd in test [1] was > 30 µM (inactive); in test [2], > 30 µM (inactive); in test [3], > 30 µM (inactive); in test [4], 0.034 µM (active); in test [5], > 30 µM (inactive); in test [6] it was > 30 µM (inactive). In test [7], the Kd was > 30 µM (inactive).
In the case of `CN1C/C=C/CCOc2cccc(c2)-c2ccnc(n2)Nc2cccc(c2)C1` [ZOTIRACICLIB], the Kd in test [1] is > 30 µM (inactive); in test [2] it was > 30 µM (inactive); in test [3] it was > 30 µM (inactive); in test [4], 0.996 µM (active); in test [5] it was > 30 µM (inactive); in test [6] it was > 30 µM (inactive). Besides, in test [7], the Kd was > 30 µM (inactive).

These data come from ChEMBL document CHEMBL3991601, “The target landscape of clinical kinase drugs” (Science, 2017).
